Our source for the T/C values is PubChem BioAssay AID330 (DTP/NCI, 2004).

“And” between values parts separate entries of the source, which are not always exact repeats. Identical values can stand only once. Toxic doses and inconclusive results are not listed.

This experiment deals with P388 leukemia ip, CD2F1 mice, survival T/C. The experiment can be described thus: NCI In Vivo Anticancer Drug Screen. Data for tumor model P388 Leukemia (intraperitoneal) in CD2F1 (CDF1) mice. Conditions: endpoint: median survival time, higher = longer survival. A digest of the protocol:
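Mice carrying the transplanted tumor received test compound or vehicle. Survival was recorded in each group, and the value is the treated-group measurement divided by that of the vehicle-treated control group.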

Where [1] appears, read: dose: 50.0 mg/kg/injection, schedule: Q01DX009 (ip), vehicle: saline.
Where [2] appears, read: dose: 100.0 mg/kg/injection, schedule: Q01DX009 (ip), vehicle: saline.
The mark [3] stands for this setting: dose: 200.0 mg/kg/injection, schedule: Q01DX009 (ip), vehicle: saline.
The mark [4] stands for this setting: dose: 60.0 mg/kg/injection, schedule: Q01DX005 (ip), vehicle: saline with Tween-80.
Setting [5] is: dose: 120.0 mg/kg/injection, schedule: Q01DX005 (ip), vehicle: saline with Tween-80.
The mark [6] stands for this setting: dose: 240.0 mg/kg/injection, schedule: Q01DX005 (ip), vehicle: saline with Tween-80.
Where [7] appears, read: dose: 50.0 mg/kg/injection, schedule: Q01DX009 (ip), vehicle: saline with Tween-80.
Setting [8] is: dose: 100.0 mg/kg/injection, schedule: Q01DX009 (ip), vehicle: saline with Tween-80.
Where [9] appears, read: dose: 200.0 mg/kg/injection, schedule: Q01DX009 (ip), vehicle: saline with Tween-80.
[10] abbreviates: dose: 100.0 mg/kg/injection, schedule: Q04DX003 (ip), vehicle: saline with Tween-80.
Where [11] appears, read: dose: 50.0 mg/kg/injection, schedule: Q01DX005 (ip), vehicle: saline with Tween-80.
Setting [12] is: dose: 100.0 mg/kg/injection, schedule: Q01DX005 (ip), vehicle: saline with Tween-80.
The mark [13] stands for this setting: dose: 200.0 mg/kg/injection, schedule: Q01DX005 (ip), vehicle: saline with Tween-80.

On to `N#C/C(=C\c1cccnc1)C(N)=S`, for which the T/C by setting is: under setting [1], 101 % of control; under setting [2], 88 % of control; under setting [3], 104 % of control.

Take `CCOC(=O)/C=C1/Nc2ccc(Cl)cc2NC1=O` (tested in a mixture with another compound): the T/C is 96 % of control (dose: 50.0 mg/kg/injection, schedule: Q01DX009 (ip), vehicle: distilled water + Tween-80 + alcohol); 88 % of control (dose: 100.0 mg/kg/injection, schedule: Q01DX009 (ip), vehicle: distilled water + Tween-80 + alcohol); 88 % of control (dose: 200.0 mg/kg/injection, schedule: Q01DX009 (ip), vehicle: distilled water + Tween-80 + alcohol).

In the case of `Cc1c(O)ccc2c1OCC(c1ccc(Cl)cc1)C2` (centres undefined), the T/C by setting is: under setting [4], 104 % of control; under setting [5], 91 % of control; under setting [6], 92 % of control.

With `O=S1(=O)c2ccccc2N(c2ccccc2)c2nnnn21`, the T/C under setting [4] was 88 % of control, the T/C under setting [5] is 96 % of control and the T/C under setting [6] was 99 % of control.

For the compound `C1COCCSCCOCCOCCSCCO1`, the T/C (dose: 100.0 mg/kg/injection, schedule: Q04DX003 (ip), vehicle: Klucel (hydroxypropylcellulose) (HPC)) is 95 % of control; the T/C (dose: 200.0 mg/kg/injection, schedule: Q04DX003 (ip), vehicle: Klucel (hydroxypropylcellulose) (HPC)) is 100 % of control; the T/C (dose: 400.0 mg/kg/injection, schedule: Q04DX003 (ip), vehicle: Klucel (hydroxypropylcellulose) (HPC)) was 101 % of control.

Consider `CC(C)(C)CC(C)(C)c1ccc(OCc2cccc(Cl)c2)cc1`, for which the T/C by setting is: under setting [7], 97 % of control; under setting [8], 96 % of control; under setting [9], 95 % of control.

In the case of `COc1cc(Br)c(/C=C/[N+](=O)[O-])cc1OC`, the T/C under setting [10] was 116 % of control.

With `c1ccc2c(NCCCCCCCCNc3c4ccccc4nc4ccccc34)c3ccccc3nc2c1`, the T/C is 121 % of control (dose: 0.62 mg/kg/injection, schedule: Q## X009 (ip), vehicle: lactic acid); 104 % of control and 114 % of control (dose: 0.63 mg/kg/injection, schedule: Q01DX009 (ip), vehicle: other); 161 % of control (dose: 1.25 mg/kg/injection, schedule: Q01DX009 (ip), vehicle: lactic acid); 124 % of control (dose: 1.25 mg/kg/injection, schedule: Q01DX009 (ip), vehicle: saline); 159 % of control (dose: 2.5 mg/kg/injection, schedule: Q01DX009 (ip), vehicle: lactic acid); 154 % of control (dose: 2.5 mg/kg/injection, schedule: Q## X009 (ip), vehicle: lactic acid). For the same compound, the T/C reads like this: (dose: 10.0 mg/kg/injection, schedule: Q01DX009 (ip), vehicle: saline) 153 % of control; (dose: 40.0 mg/kg/injection, schedule: Q01DX009 (ip), vehicle: saline) 90 % of control; (dose: 80.0 mg/kg/injection, schedule: Q04DX003 (ip), vehicle: Klucel (hydroxypropylcellulose) (HPC)) 88 % of control.

For the compound `O=[N+]([O-])c1cc(S(=O)(=O)NCc2ccco2)ccc1N/N=C/c1ccccn1`, the T/C under setting [9] is 86 % of control.

For the compound `CCN(CC)CCCC(C)NC(Cc1ccccc1)c1cccc2ccccc12` (centres undefined), the T/C reads like this: (dose: 25.0 mg/kg/injection, schedule: Q01DX005 (ip), vehicle: suspension in saline) 100 % of control; (dose: 50.0 mg/kg/injection, schedule: Q01DX005 (ip), vehicle: suspension in saline) 106 % of control.

Take `O=c1[nH]nc(-c2ccccc2)c2c(/C=C/c3ccccc3)onc12`: the T/C runs as follows: under setting [4], 100 % of control; under setting [5], 98 % of control.

Consider `CSC(=S)N/N=C(\C)c1ccccc1`, for which the T/C (dose: 1.56 mg/kg/injection, schedule: Q01DX009 (ip), vehicle: saline) is 99 % of control; the T/C (dose: 3.12 mg/kg/injection, schedule: Q01DX009 (ip), vehicle: saline) is 100 % of control; the T/C (dose: 6.25 mg/kg/injection, schedule: Q01DX009 (ip), vehicle: saline) was 94 % of control and 97 % of control; the T/C under setting [2] was 98 % of control; the T/C under setting [3] was 90 % of control.

`O=C1CN(c2ccccc2)C(=O)CN1/N=C/c1ccc(O)c(O)c1`: the T/C is 93 % of control under setting [11], 100 % of control under setting [12] and 101 % of control under setting [13].

For `Brc1cccc2[s+]snc12`, the T/C is, setting by setting: under setting [11], 101 % of control; under setting [12], 105 % of control; under setting [13], 97 % of control.

Regarding `CC1=NN(C(=O)c2ccncc2)C(=O)C1N=Nc1ccc(S(=O)(=O)N=C(N)N)cc1` (centres undefined), the T/C was 97 % of control under setting [7], 94 % of control under setting [8] and 90 % of control under setting [9].

With `CCn1c2nc(=O)n(C)c(=O)c-2cc2cc(C)ccc21`, the T/C is 92 % of control (dose: 12.5 mg/kg/injection, schedule: Q01DX009 (ip), vehicle: saline with Tween-80); 101 % of control (dose: 25.0 mg/kg/injection, schedule: Q01DX009 (ip), vehicle: saline with Tween-80); 109 % of control under setting [7].

As to `NC(=S)c1sc(-c2ccccc2)cc1N`, the T/C (dose: 60.0 mg/kg/injection, schedule: Q01DX005 (ip), vehicle: Klucel (hydroxypropylcellulose) (HPC)) is 108 % of control; the T/C (dose: 120.0 mg/kg/injection, schedule: Q01DX005 (ip), vehicle: Klucel (hydroxypropylcellulose) (HPC)) is 106 % of control; the T/C (dose: 240.0 mg/kg/injection, schedule: Q01DX005 (ip), vehicle: Klucel (hydroxypropylcellulose) (HPC)) was 104 % of control.

With `CC(O)CNC1c2ccccc2CC1O` (centres undefined), the T/C runs as follows: (dose: 25.0 mg/kg/injection, schedule: Q01DX009 (ip), vehicle: saline) 108 % of control; under setting [1], 100 % of control; under setting [2], 100 % of control.

As to `CN1C(=O)c2ccccc2NC(=O)C12O[C@@H]2c1ccccc1` (some centres undefined), the T/C runs as follows: (dose: 1.88 mg/kg/injection, schedule: Q01DX005 (ip), vehicle: DMSO) 100 % of control; (dose: 3.75 mg/kg/injection, schedule: Q01DX005 (ip), vehicle: DMSO) 106 % of control; (dose: 7.5 mg/kg/injection, schedule: Q01DX005 (ip), vehicle: DMSO) 106 % of control; (dose: 15.0 mg/kg/injection, schedule: Q01DX005 (ip), vehicle: DMSO) 114 % of control.

For the compound `COc1cc(Br)cc(C(=O)O)c1OC`, the T/C runs as follows: (dose: 25.0 mg/kg/injection, schedule: Q01DX009 (ip), vehicle: other) 101 % of control; (dose: 50.0 mg/kg/injection, schedule: Q01DX009 (ip), vehicle: other) 106 % of control; under setting [7], 93 % of control; (dose: 100.0 mg/kg/injection, schedule: Q01DX009 (ip), vehicle: other) 102 % of control; under setting [8], 93 % of control; under setting [9], 100 % of control. For the same compound, the T/C (dose: 400.0 mg/kg/injection, schedule: Q01DX009 (ip), vehicle: saline with Tween-80) is 102 % of control.

Take `COc1ccc(/C=N\N2CN(C(CC(N)=O)C(=O)O)C(O)(CCl)N=C2N)cc1OC` (centres undefined): the T/C was 95 % of control (dose: 60.0 mg/kg/injection, schedule: Q01DX005 (ip), vehicle: saline); 98 % of control (dose: 120.0 mg/kg/injection, schedule: Q01DX005 (ip), vehicle: saline); 98 % of control (dose: 240.0 mg/kg/injection, schedule: Q01DX005 (ip), vehicle: saline).

Consider `CCc1[nH]c2ccccc2c1C(=O)c1ccncc1`, for which the T/C was 103 % of control (dose: 100.0 mg/kg/injection, schedule: Q04DX003 (ip), vehicle: suspension in saline); 101 % of control (dose: 200.0 mg/kg/injection, schedule: Q04DX003 (ip), vehicle: suspension in saline); 108 % of control (dose: 400.0 mg/kg/injection, schedule: Q04DX003 (ip), vehicle: suspension in saline).

For the compound `C/[N+]([O-])=C/c1ncc([N+](=O)[O-])n1CCO`, the T/C under setting [1] is 102 % of control, the T/C under setting [2] was 107 % of control and the T/C under setting [3] is 98 % of control.

Consider `O=[N+]([O-])c1cnn(Cn2cc([N+](=O)[O-])cn2)c1`, for which the T/C under setting [10] was 109 % of control; the T/C (dose: 200.0 mg/kg/injection, schedule: Q04DX003 (ip), vehicle: saline with Tween-80) was 116 % of control; the T/C (dose: 400.0 mg/kg/injection, schedule: Q04DX003 (ip), vehicle: saline with Tween-80) was 120 % of control.
